Data from US6362212B1, “Oxime derivative and bactericide containing the same as active ingredient” (Shionogi & Company, Ltd., priority 1994, dated 2002).

Legend:
Type in all cases: in vivo
[1] = tested on: Sphaerotheca fuliginea; assay: Controlling effect on Sphaerotheca fuliginea by foliage application (pot experiment); conditions: foliage spray on cucumber (cv. TSUKUBASHIROIBO) first leaves, infected area after 10 days in greenhouse at 20° C.
Method in brief: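 First leaves of cucumber seedlings, 2-3 weeks old, were sprayed with compound (DMF solution diluted in water with spreader). They were inoculated 24 h later with a Sphaerotheca fuliginea conidia spray and kept 10 days at 20° C in a greenhouse. Percent control was calculated from infected leaf area.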

[2] = tested on: Erysiphe graminis f. sp. tritici; assay: Controlling effect on Erysiphe graminis f. sp. tritici by foliage application (pot experiment); conditions: foliage spray on wheat (cv. NORIN No. 61) seedlings, infected area after 10 days in greenhouse at 20° C.
Method in brief: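 Wheat seedlings (cv. NORIN No. 61, 2-3 weeks old) sprayed with compound in DMF diluted in water with spreader, then inoculated with conidia 24 hours later. Kept in greenhouse at 20 °C for 10 days; percent control calculated from infected leaf area.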

[3] = tested on: Puccinia coronata; assay: Controlling effect on Puccinia coronata by foliage application (pot experiment); conditions: foliage spray on oat (cv. PC-38) seedlings, infected area after 1 day moist chamber and 8 days greenhouse at 20° C.
Description: The following Test Examples illustrate the effects of the fungicide of the present invention. (I. Controlling effects on various plant diseases by foliage application (pot experiment)) A test compound was dissolved in a small amount of N,N-dimethylformamide, and the solution was diluted to a given concentration with distilled water containing a spreader. Thus, a liquid sample to be tested was prepared. The liquid sample was sprayed to test plants, and 24 hours thereafter, pathogens were inoculated by the method described below. […] The seeds of oat (cv.: PC-38) were sown in plastic cups (each 9 cm in diameter), followed by cultivation for 2 to 3 weeks. The test compound in the form of a solution or suspension was sprayed to the seedlings. Spores of Puccinia coronata cultured on oat leaves were collected, diluted about 10-fold with talc, and sprayed to the test plants to inoculate the plants with the pathogen. After the inoculation, the plants were kept in a moist chamber at 20° C. for 1 day and then in a greenhouse at 20° C. for 8 days. The infected area on the leaf was observed, and the percent control was calculated.

[4] = tested on: Pseudoperonospora cubensis; assay: Controlling effect on Pseudoperonospora cubensis by foliage application (pot experiment); conditions: foliage spray on cucumber (var. TSUKUBASHIROIBO) first leaves, lesion area after 10 days in moist chamber at 20° C.
Description: The following Test Examples illustrate the effects of the fungicide of the present invention. (I. Controlling effects on various plant diseases by foliage application (pot experiment)) A test compound was dissolved in a small amount of N,N-dimethylformamide, and the solution was diluted to a given concentration with distilled water containing a spreader. Thus, a liquid sample to be tested was prepared. The liquid sample was sprayed to test plants, and 24 hours thereafter, pathogens were inoculated by the method described below. […] The seeds of cucumber (var.: […]) were sown in plastic cups (each 9 cm in diameter), followed by cultivation for 2 to 3 weeks. The test compound in the form of a solution or suspension was sprayed to the surface of their first leaves, and a zoosporangia suspension of Pseudoperonospora cubensis cultured on cucumber leaves was dropped on the above leaf surfaces to inoculate the test plants with the pathogen. After the inoculation, the plants were kept in a moist chamber at 20° C. for 10 days. Then, the area of the lesions around the inoculum were observed and the percent control was calculated.

[5] = tested on: Pyricularia oryzae; conditions: foliage spray on rice seedlings (cv. […]), number of lesions six days after the inoculation

Row | SMILES | Controlling effect on Sphaerotheca fuliginea by foliage application at 500 ppm (percent control) [1] | Controlling effect on ErYsiphe graminis f. sp. tritici by foliage application at 500 ppm (percent control) [2] | Controllng effect on Puccinia coronata by foliage application at 500 ppm (percent control) [3] | Controlling effect on Pseudoperonospora cubensis by foliage application at 500 ppm (percent control) [4] | Controlling effect on PYricularia orYzae by foliage application at 500 ppm (percent control) [5] | pest or weed control at 500 ppm ([1]; Podosphaera fuliginea, in Cucumis sativus, foliar, 240 h, read-out: Controlling effect on Sphaerotheca fuliginea by foliage application at 500 ppm (percent control)) | pest or weed control at 500 ppm ([2]; Blumeria graminis, foliar, 240 h, read-out: Controlling effect on ErYsiphe graminis f. sp. tritici by foliage application at 500 ppm (percent control))
1 | CON=C(c1nnco1)c1ccccc1COc1ccccc1 [compound 701] | 100 percent control | 70 percent control | 97 percent control | 100 percent control |  |  | 
2 | CON=C(C1=NOCC1)c1ccccc1COc1cc(C)ccc1C (mixture of isomers) [compound 1236] | 100 percent control | 90 percent control | 97 percent control |  | 97 percent control |  | 
3 | CON=C(c1ccccc1COc1ccc(Cl)cc1)n1cncn1 [compound 267] | 100 percent control | 97 percent control | 90 percent control |  | 90 percent control |  | 
4 | CON=C(c1cc(C)on1)c1ccccc1COc1cc(C)ccc1C (mixture of isomers) [Compound No. 436] | 100 percent control | 90 percent control | 90 percent control |  | 70 percent control |  | 
5 | CON=C(C1=NCCO1)c1ccccc1COc1cc(C)ccc1C [compound 1328] | 100 percent control | 90 percent control | 70 percent control |  | 90 percent control |  | 
6 | CON=C(c1cc(C)no1)c1ccccc1COc1cc(C)ccc1C (single isomer, unassigned) [636B, 2-(2,5-dimethylphenoxymethyl)phenyl 3-methylisoxazol-5-yl ketone O-methyloxime] | 100 percent control | 100 percent control | 90 percent control |  | 70 percent control |  | 
7 | CON=C(c1ccccc1COc1cc(C)ccc1C)c1nccn1C (single isomer, unassigned) [136B] | 100 percent control | 70 percent control | 97 percent control |  | 70 percent control |  | 
8 | CON=C(C1=NCCN1C)c1ccccc1COc1ccccc1C [compound 1112] | 100 percent control | 90 percent control | 70 percent control |  | 97 percent control |  | 
9 | CON=C(c1ccccc1Oc1ccccc1)c1nccn1C [compound 161] | 100 percent control | 70 percent control | 97 percent control |  |  |  | 
10 | CON=C(C1=NCCN1)c1ccccc1COc1cc(C)ccc1C [compound 1478] | 70 percent control | 90 percent control | 70 percent control |  |  |  | 
11 | CON=C(c1ccno1)c1ccccc1COc1cc(C)ccc1C (single isomer, unassigned) [536A] | 100 percent control | 97 percent control | 90 percent control |  |  |  | 
12 | CON=C(C1=NCCN1C)c1ccccc1COc1cc(C)ccc1C [Compound No. 1136] | 100 percent control | 90 percent control | 90 percent control |  |  |  | 
13 | CON=C(c1ccccc1COc1cccnc1Cl)n1ccnc1 [compound 57] | 90 percent control | 70 percent control | 90 percent control |  |  |  | 
14 | CON=C(c1nnco1)c1ccccc1COc1ccccc1C [Compound No. 712] | 100 percent control | 100 percent control | 100 percent control |  | 90 percent control |  | 
15 | CON=C(c1ccon1)c1ccccc1COc1ccccc1C (mixture of isomers) [compound 312] | 100 percent control | 100 percent control | 97 percent control |  | 70 percent control |  | 
16 | CON=C(c1ccccc1COc1cc(C)ccc1C)c1nccn1C (single isomer, unassigned) [136A] | 100 percent control | 90 percent control | 100 percent control |  | 90 percent control |  | 
17 | CON=C(c1noc(C)n1)c1ccccc1COc1cc(C)ccc1C (single isomer, unassigned) [936A] | 100 percent control | 97 percent control | 90 percent control |  | 97 percent control |  | 
18 | C=CCON=C(c1ccccc1COc1ccccc1)n1cncn1 [compound 278] | 97 percent control | 90 percent control | 90 percent control |  |  |  | 
19 | CON=C(c1cc(C)no1)c1ccccc1COc1cc(C)ccc1C (single isomer, unassigned) [636A, 2-(2,5-dimethylphenoxymethyl)phenyl 3-methylisoxazol-5-yl ketone O-methyloxime] |  |  | 100 percent control |  | 97 percent control | 97% | 100%
